From patent publication US9428456B2, “1-[m-carboxamido(hetero)aryl-methyl]-heterocyclyl-carboxamide derivatives” (Actelion Pharmaceuticals Ltd., priority 2012, dated 2016)

Target: CXCR7 (Homo sapiens (Human), UniProt P25106)
Experiment: PathHunter CHO-K1 CXCR7 b-arrestin assay (agonistic activity)
Assay type: cell-based
Conditions: PathHunter CHO-K1 CXCR7 b-arrestin cell line
Method: The CXCl12 receptor and CXCR7 agonistic activities of the compounds of formula (I) are determined in accordance with the following experimental method.
The assay is using the PathHunter™ CHO-K1 CXCR7 b-arrestin cell line from DiscoverX. The system is based on the Enzyme Fragment Complementation Technology. Two complementing fragments of the b-galactosidase enzyme are expressed within stably transfected cells. The larger portion of b-gal, termed EA for Enzyme Acceptor, is fused to the C-terminus of b-arrestin 2. The smaller fragment, termed ProLink™ tag, is fused to CXCR7 at the C-terminus. Upon activation, b-arrestin is recruited which forces the interaction of ProLink and EA, allowing complementation of the two fragments of b-gal and the formation of a functional enzyme which is capable of hydrolysing the substrate and generating a chemiluminescent signal.
CHO-K1 CXCR7 b-arrestin cells are detached from culture dishes with a cell dissociation buffer (Invitrogen, #13151-014) and collected in growing medium (F12 HAMS 90% (v/v)/FCS 10% (v/v), Penicilin/streptomycin 1% (v/v)). 5000 cells per well (in 20 μl) are seeded in a 384 well plate (white-walled, clear bottom; BD Falcon #353274). The plate is incubated at 37° C./5% CO2 for 24 hours. Medium is then replaced by 20 μl OPTIMEM (Invitrogen #31985) for 3 to 4 hours. Test compounds are dissolved at 10 mM in DMSO and serially diluted in DMSO to 200× of the final concentration for dose response curves. Compounds are then diluted 1:33.3 in HBSS1×. 5 μl/well of HBSS1×/20 mM HEPES/0.2% BSA are added to the assay plate followed by addition of 5 μl/well of diluted compounds. CXCL12 (Peprotech #300-28A) may be used as a reference agonist. The plate is incubated for 90 minutes at 37° C. 12 μl of detection reagent (Path Hunter Detection Kit, DiscoveRx, #93-0001) is transferred to the assay plate and to the plate is incubated for 1 hour at room temperature. Luminescent signal is read in a microplate reader (FLUOstar Optima, bmg). The calculated EC50 values may fluctuate depending on the daily cellular assay performance. Fluctuations of this kind are known to those skilled in the art. Average EC50 values from several measurements are given as geometric mean values.

CXCR7, sequence (P25106 whole entry): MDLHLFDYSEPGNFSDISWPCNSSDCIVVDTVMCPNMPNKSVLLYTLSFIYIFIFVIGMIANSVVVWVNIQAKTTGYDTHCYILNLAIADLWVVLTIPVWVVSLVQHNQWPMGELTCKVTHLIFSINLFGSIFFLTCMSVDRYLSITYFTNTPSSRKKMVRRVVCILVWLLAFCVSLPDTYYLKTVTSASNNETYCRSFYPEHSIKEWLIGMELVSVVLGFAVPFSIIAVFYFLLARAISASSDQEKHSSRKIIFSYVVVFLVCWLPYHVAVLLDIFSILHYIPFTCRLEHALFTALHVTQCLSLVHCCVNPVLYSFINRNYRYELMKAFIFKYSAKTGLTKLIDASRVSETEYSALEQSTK
CXCR7, sequence (P32121 whole entry partner): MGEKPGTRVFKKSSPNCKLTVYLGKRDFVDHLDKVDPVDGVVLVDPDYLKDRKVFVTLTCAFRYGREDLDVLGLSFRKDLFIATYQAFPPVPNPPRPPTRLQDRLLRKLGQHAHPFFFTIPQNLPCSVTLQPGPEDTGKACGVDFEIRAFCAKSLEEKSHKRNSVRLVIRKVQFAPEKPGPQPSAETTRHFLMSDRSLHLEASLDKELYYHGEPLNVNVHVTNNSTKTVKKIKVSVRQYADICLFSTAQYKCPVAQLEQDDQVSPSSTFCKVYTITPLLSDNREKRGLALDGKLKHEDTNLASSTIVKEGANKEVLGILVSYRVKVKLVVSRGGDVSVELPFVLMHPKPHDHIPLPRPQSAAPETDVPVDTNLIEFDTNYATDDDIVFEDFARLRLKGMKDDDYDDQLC

Compound	EC50 [µM]
O=C(Nc1cccc(CN2CCC(C(=O)NC3CCCCC3)CC2)c1)c1ccc(F)cn1 [Example 1.057]	0.0008
O=C(Nc1cccc(CN2CCC(C(=O)NC3CCCCC3)CC2)c1)c1cn[nH]c1 [Example 1.044]	1.24
C[C@@H]1C[C@H](C(=O)NC2CCCCC2)CCN1Cc1cccc(NC(=O)c2cccc(C(F)(F)F)n2)c1 [Example 2.106, 6-Trifluoromethyl-pyridine-2-carboxylic acid [3-((2R,4R)-4-cyclohexylcarbamoyl-2-methyl-piperidin-1-ylmethyl)-phenyl]-amide or 6-trifluoromethyl-pyridine-2-carboxylic acid [3-((2S,4S)-4-cyclohexylcarbamoyl-2-methyl-piperidin-1-ylmethyl)-phenyl]-amide]	0.049
CC(C)CN(C)C(=O)C1CCN(Cc2cccc(NC(=O)c3cncc(F)c3)c2)CC1 [Example 1.277]	0.018
CC(c1cccc(NC(=O)c2cccc(C#N)c2)c1)N1CCC(C(=O)NC2CCCCC2)CC1 (racemic) [Example 1.179]	0.078
CC(c1cccc(NC(=O)c2ccc(C(F)(F)F)nc2)c1)N1CCC(C(=O)NC2CCCCC2)CC1 (racemic) [Example 1.183]	0.098
CC(C)(C)c1ccc(C(=O)Nc2cccc(CN3CCC(C(=O)NC4CCCCC4)CC3)c2)s1 [Example 1.283]	0.034
COc1ccccc1C(=O)Nc1cccc(CN2CCC(C(=O)NC3CCCCC3)CC2)c1 [Example 1.009]	0.017
O=C(Nc1ccc(Cl)c(CN2CCC(C(=O)NC3CCCC3)CC2)c1)c1cnc2ccccc2c1 [Example 1.222]	0.003
COc1cc(CN2CCC(C(=O)NC(C)(C)C)CC2)cc(NC(=O)c2cccc(C(F)(F)F)n2)c1 [Example 1.325]	0.262
CC(C)(C)NC(=O)C1CCN(Cc2cccc(NC(=O)c3ccc(Cl)c[n+]3[O-])c2)CC1 [Example 4.024, 5-Chloro-1-oxy-pyridine-2-carboxylic acid [3-(4-tert-butylcarbamoyl-piperidin-1-ylmethyl)-phenyl]-amide]	0.003
CC(c1cccc(NC(=O)c2ncccn2)c1)N1CCC(C(=O)NC2CCCCC2)CC1 (racemic) [Example 1.195]	0.176
Cc1sc(C(=O)Nc2cccc(CN3CCC(C(=O)NC4CCCCC4)CC3)c2)cc1CC(C)C [Example 1.004]	0.04
Cc1cncc(C(=O)Nc2nc(CN3CCC(C(=O)NC4CCCC4)CC3)cs2)c1 [Example 1.294]	0.408
CC(C)(C)NC(=O)C1CCN(Cc2cccc(NC(=O)C3(c4ccc(Cl)cc4Cl)CC3)c2)CC1 [Example 1.268]	0.002
CC(C)(C)NC(=O)C1CCN(Cc2cccc(NC(=O)/C=C/c3ccccc3)c2)CC1 [Example 1.337]	0.008
CCc1ccc(NC(=O)c2ccc(F)cc2)cc1CN1CCC(C(=O)NC(C)(C)C)CC1 [Example 1.334]	0.017
O=C(Nc1cccc(CN2CCC(C(=O)NC3CCCCC3)CC2)c1)c1cc2cccnc2[nH]1 [Example 1.146]	0.008
CCc1cncc(C(=O)Nc2cccc(CN3CCC(C(=O)NC(C)(C)C)CC3)c2)c1 [Example 1.241]	0.004

Compound	EC50 [µM]
CC(C)(C)NC(=O)C1CCN(Cc2cccc(NC(=O)c3cncc(C4CC4)c3)c2)CC1 [Example 1.240]	0.003
O=C(Nc1cccc(CN2CCC(C(=O)NC3CCCCC3)CC2)c1)c1cc(Cl)ccc1Cl [Example 1.137]	0.008
O=C(Nc1cccc(CN2CCC(C(=O)NC3CCCCC3)CC2)c1)c1cnc2[nH]ccc2c1 [Example 1.076]	0.026
Cc1ccccc1C(=O)Nc1cccc(CN2CCC(C(=O)NC3CCCCC3)CC2)c1 [Example 1.099]	0.019
O=C(Nc1cccc(CN2CCC(C(=O)NC3CCCCC3)CC2)c1)c1cc(F)cc(F)c1 [Example 1.019]	0.002
CC(C)(C)NC(=O)C1CCN(Cc2cccc(NC(=O)c3ccc4snnc4c3)c2)CC1 [Example 1.355]	0.003
CCC(C)(C)NC(=O)C1CCN(Cc2cccc(NC(=O)c3cc(C)c[n+]([O-])c3)c2)CC1 [Example 4.023, N-{3-[4-(1,1-Dimethyl-propylcarbamoyl)-piperidin-1-ylmethyl]-phenyl}-5-methyl-1-oxy-nicotinamide]	0.173
CC(c1cccc(NC(=O)c2ccccc2)c1)N1CCC(C(=O)NC2CCCCC2)CC1 (stereo not drawn) [Example 1.165]	0.023
CN1CCN(c2ccc(C(=O)Nc3cccc(CN4CCC(C(=O)NC5CCCCC5)CC4)c3)cn2)CC1 [Example 1.072]	0.471
O=C(Nc1cccc(CN2CCC(C(=O)NC3CCCCC3)CC2)c1)c1ccccc1F [Example 1.102]	0.004
CC(c1cccc(NC(=O)c2cc(Cl)ccn2)c1)N1CCC(C(=O)NC2CCCCC2)CC1 (racemic) [Example 1.180]	0.051
CC(C)(C)NC(=O)C1CCN(Cc2cccc(NC(=O)c3ccnnc3)c2)CC1 [Example 1.323]	0.066
O=C(Nc1cccc(CN2CCC(C(=O)NC3CCCCC3)CC2)c1)c1cnc2cc[nH]c2c1 [Example 1.093]	0.149
CC(C)(C)NC(=O)C1CCN(Cc2cccc(NC(=O)c3ccc4ccccc4n3)c2)CC1 [Example 1.235]	0.0009
O=C(Nc1cccc(CN2CCC(C(=O)NC3CCCCC3)CC2)c1)c1ccc(Cl)c(F)c1 [Example 1.132]	0.01
Cc1cncc(C(=O)Nc2cccc(CN3CCCC(C(=O)NC4CCCCC4)CC3)c2)c1 (racemic) [Example 1.291]	0.134
CC(C(=O)Nc1cccc(CN2CCC(C(=O)NC(C)(C)C)CC2)c1)c1ccc(Cl)cc1 (stereo not drawn) [Example 1.312]	0.008
Cc1cccc(C(=O)Nc2cccc(CN3CCC(C(=O)NC4CCCCC4)CC3)c2)c1C [Example 1.109]	0.04
O=C(Nc1cccc(CN2CCC(C(=O)NC3CCCCC3)CC2)c1)c1ccncc1Cl [Example 1.074]	0.06

Compound	EC50 [µM]
CC(c1cccc(NC(=O)c2ccc(Cl)cc2)c1)N1CCC(C(=O)NC2CCCCC2)CC1 (stereo not drawn) [Example 1.164]	0.008
O=C(Nc1cccc(CN2CCC(C(=O)NC3CCCCC3)CC2)c1)C1CCCCCC1 [Example 1.152]	0.01
O=C(Nc1cccc(CN2CCC(C(=O)NC3CCCC3)CC2)c1)c1cccc(C(F)(F)F)n1 [Example 1.208]	0.0006
O=C(Nc1ccc(Cl)c(CN2CCC(C(=O)NC3CCCC3)CC2)c1)c1ccccc1 [Example 1.217]	0.0004
1-[3-(4-Chloro-benzoylamino)-benzyl]-piperidine-4-carboxylic acid (1-cyano-cyclopropyl)-amide [Example 2.036]	0.015
COc1c(CN2CCC(C(=O)NC(C)(C)C)CC2)cccc1NC(=O)c1ccc(F)cc1 [Example 1.321]	0.006
CC(c1cccc(NC(=O)c2cnc(N3CCCC3)s2)c1)N1CCC(C(=O)NC2CCCCC2)CC1 (racemic) [Example 1.194]	0.303
Cc1nc(C)c(CC(=O)Nc2cccc(CN3CCC(C(=O)NC(C)(C)C)CC3)c2)s1 [Example 1.262]	0.12
Cc1ccncc1C(=O)Nc1cccc(CN2CCC(C(=O)NC3CCCCC3)CC2)c1 [Example 1.063]	0.237
COc1c(CN2CCC(C(=O)NC(C)(C)C)CC2)cccc1NC(=O)c1cncc(C)c1 [Example 1.320]	0.048
O=C(Nc1cccc(CN2CCC(C(=O)NC3CCCCC3)CC2)c1)c1ccc(C(F)(F)F)nc1 [Example 1.068]	0.007
CC(C)(C)NC(=O)C1CCN(Cc2cccc(NC(=O)Cc3cnccn3)c2)CC1 [Example 1.263]	0.143
CC(C)(C)NC(=O)C1CCN(Cc2cccc(NC(=O)C3CCc4ccccc43)c2)CC1 (racemic) [Example 1.267]	0.002
CC(C)(C)NC(=O)C1CCN(Cc2cccc(NC(=O)Cc3c(Cl)ccc(C(F)(F)F)c3Cl)c2)CC1 [Example 1.250]	0.003
Cc1cc(C(=O)Nc2cccc(C(C)N3CCC(C(=O)NC4CCCCC4)CC3)c2)c2cnn(C(C)C)c2n1 (racemic) [Example 1.186]	0.086
CC(C)(C)NC(=O)C1CCN(Cc2cccc(NC(=O)c3cccc(C(F)(F)F)[n+]3[O-])c2)CC1 [Example 1.345]	0.001
O=C(Nc1cccc(CN2CCC(C(=O)NC3CC3)CC2)c1)c1ccc(F)cn1 [Example 1.205]	0.002
COc1cc(OC)cc(C(=O)Nc2cccc(CN3CCC(C(=O)NC4CCCCC4)CC3)c2)c1 [Example 1.125]	0.01
CCC(C)(C)NC(=O)C1CCN(Cc2cccc(NC(=O)c3cccc(C(F)(F)F)[n+]3[O-])c2)CC1 [Example 1.346]	0.001
